Measured values from patent US6368788B1 (priority 1987, dated 2002).
Marks after values point to notes of the source that are not given here.

What was measured:
[1] = system: Staphylococci; test: Antibiotic sensitivity (doubling-dilution, MIC-2000) of patient isolates before and after Stage 1; assay type: cell-based
Protocol: Antibiotics were administered according to established dosages and routes: i.e., penicillin, Ampicillin, oxacillin, tetracycline, erythromycin, garamycin; administered by intramuscular route. Antibiotics were chosen according to the antibiotic sensitivity of the Staphylococci isolated from the respective patients. (Antibiotic sensitivity was determined by testing staphylococcal isolates for their sensitivity in an antibiotic sensitivity doubling-dilution assay with the aid of the semi-automatic MIC-2000 system, Dynatech, USA).
Staphylococci were isolated from patients before and after treatment in Stage 1 with L-Glu-L-Trp in order to determine whether a favorable reversal of T-lymphocyte immunodeficiency might lead to a change in the antibiotic sensitivity. The isolated bacterial colonies following Stage I were typed as follows: namely, in 16 patients S. aureus, in 34, S. epidermidis, in 2 saprophytic Staphylococci. In all cases the same types of Staphylococci were isolated following treatment with L-Glu-L-Trp, but in 4 patients the predominant Staphylococci in the isolates changed from S. aureus to S. epidermidis (n=2), and saprophytic Staphylococci (n=2).
Antibiotic sensitivity of Staphylococci were determined by doubling-dilution methods with the aid of the semiautomatic MIC-2000 system (Dynatech, USA).

[2] = system: peripheral blood lymphocytes; test: Protocol A3 Group 2: pyoderma in patients with SLE; assay type: in vivo, human
Source text: Group 2 constituted 22 patients with diagnosed forms of systemic lupus erythematosus (SLE): ie., 14 males and 8 females ranging in age from 21 to 62 years of age. The time since presentation with a diagnosis of SLE in this patient population ranged from several months to 18 years. All SLE patients in this trial had dermal manifestations of lupus erythematosus that included discoid disseminated forms of the disease. All patients had experienced chronic and recurrent episodes of pyoderma, and all had previously received conventional therapy, including use of antibiotics, delagil, and external corticosteroid ointments without effect. Patients in Group 2 were randomly divided into two treatment groups, the first consisting of 13 patients (9 men and 4 women) treated with L-Glu-L-Trp according to Therapy A, below, and the second consisting of 9 patients (5 men and 4 women) treated (as a control) according to Therapy B, ie., conventional therapeutic methods using anti-malarial preparations and vasoactive agents according to standard dosages and schedules.
In treatment Protocol A, all patients received L-Glu-L-Trp in combination with antibiotics. […]
Local antibiotics were administered as follows: Ampicillin (4), oxacillin (4), Levomycetin (1), tetracycline (9), Rondomycin (2), deoxycycline (8), cephalexin (2), and Rifampicin (1).

[3] = system: Staphylococcus aureus; test: Survival after Staphylococcus aureus peritonitis, therapeutic treatment 1 hour after challenge; assay type: in vivo, mice; conditions: for Percentage Survivors: ip therapeutic 1 hour after challenge
Protocol: EXAMPLES 32-34, above, test substance (i.e., L-Glu-L-Trp alone or in combination with antibiotic, or antibiotic alone) was injected sc, ip, po one hour after the bacterial challenge.

[4] = Survival in LPS-induced endotoxic shock; assay type: in vivo, CBA mice; conditions: 100 μg/kg prophylactic
Protocol: The mortality results were evaluated using the Litchfield-Wilcoxon's probit analysis method and a computer program written to conduct probit analyses.

[5] = system: peripheral blood leukocytes
Protocol: Twenty-eight patients (15) having the same disease profile and under conventional treatment formed a control group.
The patients presented with the following diagnosed odontogenic infections: 18 with limited purulent infection(s), 7 with focal infection(s), 3 with diffuse infection(s). In addition, 3 patients presented with destructive osteomyelitis and 15 with plegmons mandible.
All 15 children in the conventional treatment group were evaluated before therapy. Post-treatment measurements were performed with peripheral blood samples that were collected from all the conventional and L-Glu-L-Trp treated children. Fifteen healthy normal children were also evaluated to determine the normal mean values in the respective assays (Normal Healthy Control).

[6] = with antibiotic therapy
[7] = Group 2 pyoderma in SLE, after L-Glu-L-Trp Therapy (n = 13)
[8] = After Combination L-Glu-L-Trp Therapy
[9] = After L-Glu-L-Trp Combination Therapy
[10] = children, periapical granulomas, L-Glu-L-Trp Combination, After Therapy
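Throughout, for ATIII: hospitalized children with severe pneumonia, thrombohemorrhagic syndrome plus secondary immune deficiency, lab values taken before and after treatment versus healthy normal controls, comparison group given antibiotic therapy alone.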
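Throughout, for Clotting time (citrated whole blood-recalcified): hospitalized children with severe pneumonia, thrombohemorrhagic syndrome plus secondary immune deficiency, lab values taken before and after treatment versus healthy normal controls, comparison group given antibiotic therapy alone.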
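Throughout, for FDP: hospitalized children with severe pneumonia, thrombohemorrhagic syndrome plus secondary immune deficiency, lab values taken before and after treatment versus healthy normal controls, comparison group given antibiotic therapy alone.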
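Throughout, for Fibrinogen Concentration: hospitalized children with severe pneumonia, thrombohemorrhagic syndrome plus secondary immune deficiency, lab values taken before and after treatment versus healthy normal controls, comparison group given antibiotic therapy alone.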

L-Glu-L-Trp
Patients with decreased MIC of antibiotic for isolated bacteria ([1]; conclusion of Stage 1): 78% | Increase in antibiotic sensitivity of isolates ([1]; in certain cases): > 100 fold | B-Lymphocytes [2, 7]: 0.16 ± 0.01 ×10^9/L | B-Lymphocytes % Normal Value [2, 7]: (52%) | B-Lymphocytes (%) [2, 7]: 6.8 ± 0.9% | Basophils (%) [2, 7]: 0.1 ± 0.1% | Blast Transformation, Con-A [2, 7]: 64.1 ± 6.5 % of PBL | Blast Transformation, PHA [2, 7]: 47.4 ± 3.5 % of PBL | Eosinophils (%) [2, 7]: 2.2 ± 0.1% | Erythrocytes [2, 7]: 4.7 ± 0.1 10^12/L | IgA [2, 7]: 2.85 ± 0.32 g/L | IgA % Normal Value [2, 7]: (150%) | IgG [2, 7]: 14.8 ± 1.27 g/L | IgG % Normal Value [2, 7]: (137%) | IgM [2, 7]: 0.92 ± 0.12 g/L | IgM % Normal Value [2, 7]: (58%) | Leukocytes [2, 7]: 5.74 ± 0.12 ×10^9/L | Leukocytes % Normal Value [2, 7]: (86%) | Lymphocytes [2, 7]: 2.17 ± 0.21 ×10^9/L | Lymphocytes % Normal Value [2, 7]: (78%) | Lymphocytes, % [2, 7]: 36.4 ± 2.3% | Monocytes, % [2, 7]: 8.0 ± 0.7% | Neutrophils [2, 7]: 3.5 ± 0.7 ×10^9/L | Neutrophils, % [2, 7]: 55.3 ± 4.2% | Neutrophils, % Normal Value [2, 7]: (106%) | T-Lymphocytes [2, 7]: 1.13 ± 0.07 ×10^9/L | T-Lymphocytes % Normal Value [2, 7]: (66%) | T-Lymphocytes (%) [2, 7]: 44.3 ± 2.7% | T-helper [2, 7]: 0.87 ± 0.12 ×10^9/L | T-helper % Normal Value [2, 7]: (66%) | T-helper (%) [2, 7]: 26.5 ± 2.7% | T-suppressor [2, 7]: 0.53 ± 0.03 ×10^9/L | T-suppressor % Normal Value [2, 7]: (136%) | T-suppressor (%) [2, 7]: 21.2 ± 3.7% | Clinical outcome ([2]; human, in vivo): leads to a positive clinical effect and resolution of dermal rashes | Percentage Survivors ([3]; 24 hours, Glu-Trp dose 0.01 μg/kg): 16.7% | Percentage Survivors ([3]; 24 hours, Glu-Trp dose 0.1 μg/kg): 5.6*† % | Percentage Survivors ([3]; 24 hours, Glu-Trp dose 1 μg/kg): 27.8† % | Percentage Survivors ([3]; 24 hours, Glu-Trp dose 10 μg/kg (alone or + Ampicillin)): 66.7* % | Percentage Survivors ([3]; 24 hours, Glu-Trp dose 100 μg/kg (alone or + Ampicillin)): 66.7* % | Percentage Survivors ([3]; 48 hours, Glu-Trp dose 0.01 μg/kg): 0% | Percentage Survivors ([3]; 48 hours, Glu-Trp dose 0.1 μg/kg): 0† % | Percentage Survivors ([3]; 48 hours, Glu-Trp dose 1 μg/kg): 5.6† % | Percentage Survivors ([3]; 48 hours, Glu-Trp dose 10 μg/kg (alone or + Ampicillin)): 38.9* % | Percentage Survivors ([3]; 48 hours, Glu-Trp dose 100 μg/kg (alone or + Ampicillin)): 55.6* % | Percentage Survivors ([3]; 72 hours, Glu-Trp dose 0.01 μg/kg): 0% | Percentage Survivors ([3]; 72 hours, Glu-Trp dose 0.1 μg/kg): 0% | Percentage Survivors ([3]; 72 hours, Glu-Trp dose 1 μg/kg): 0† % | Percentage Survivors ([3]; 72 hours, Glu-Trp dose 10 μg/kg (alone or + Ampicillin)): 16.7* % | Percentage Survivors ([3]; 72 hours, Glu-Trp dose 100 μg/kg (alone or + Ampicillin)): 33.3* % | Survival ([3]; ip, 1 hour after challenge): dose-response relationship between the amount of L-Glu-L-Trp administered ip and the survival of animals | Survivors at 24 hr. and 30 hr. [4]: statistically significant difference in the number of survivors | B-Lymphocytes [8]: 0.84 ± 0.06 ×10^9/L | B-Lymphocytes % Normal Value [8]: (175%) | IgA [8]: 67 ± 4.8 | IgA % Normal Value [8]: (163%) | IgG [8]: 138 ± 5.6 | IgG % Normal Value [8]: (97%) | IgM [8]: 153 ± 6.9 | IgM % Normal Value [8]: (89%) | Leukocytes [8]: 11.0 ± 0.01 ×10^9/L | Leukocytes % Normal Value [8]: (98%) | Lymphocytes [8]: 0.36 ± 0.01 ×10^9/L | Lymphocytes % Normal Value [8]: (116%) | T-Lymphocytes [8]: 1.1 ± 0.01 ×10^9/L | T-Lymphocytes % Normal Value [8]: (167%) | ATIII [9]: 85 ± 2.1 % of normal | Clotting time (citrated whole blood-recalcified) [9]: 129 ± 2.3^ | FDP [9]: 96 ± 6.7 µg/mL | Fibrinogen Concentration [9]: 4.2 ± 0.4 g/L | Fibrinolytic Activity [9]: 186 ± 11.5 min | Hagemann factor dependent fibrinolysis [9]: 72 ± 6.8 | Kaolin-Cephalin clotting time [9]: 58 ± 1.2 | Prothrombin time [9]: 22 ± 0.1 | Thrombotest [9]: 33 ± 1.2 | Whole blood clotting time [9]: 465 ± 16.2 s | B-Lymphocytes % of Normal Value [5, 10]: (108%) | B-Lymphocytes: No. [5, 10]: 0.67 ± 0.05 10^9/L | IgA [5, 10]: 1.09 ± 0.04 g/L | IgA % Normal Value [5, 10]: (104%) | IgG [5, 10]: 10.78 ± 0.83 g/L | IgG % Normal Value [5, 10]: (117%) | IgM [5, 10]: 0.93 ± 0.07 g/L | IgM % Normal Value [5, 10]: (95%) | LMIR Response: % w/PHA [5, 10]: 14.65 ± 3.11 % | Leukocytes % Normal Value [5, 10]: (97%) | Leukocytes: No. [5, 10]: 6.60 ± 0.39* 10^9/L | Lymphocytes % Normal Value [5, 10]: (36%) | Lymphocytes: No. [5, 10]: 2.37 ± 0.21 10^9/L | T-Lymphocytes % of Normal Value [5, 10]: (98%) | T-Lymphocytes: No. [5, 10]: 1.24 ± 0.11* 10^9/L | T-lymphocyte counts, % of normal levels ([5]; following combination therapy): 98% | Clinical outcome [6]: accelerated healing of chronic and acute ear infections
